Experimental data from patent US20110195900A1, “PEPTIDIC PTH RECEPTOR AGONISTS” (FERRING B.V., priority 2008, published 2011).
Where two headings read alike, the source gives them in different places. Non-standard residues stand in square brackets, D forms with d. Residues, ends and D or L forms follow the SMILES beside them. No end group written: not given here. 1Nal = N[C@@H](Cc1cccc2ccccc12)C(=O)O; 2Nal = N[C@@H](Cc1ccc2ccccc2c1)C(=O)O; β3hI = CC[C@H](C)[C@H](N)CC(=O)O; β3hR = N=C(N)NCCC[C@H](N)CC(=O)O; Nle = CCCC[C@H](N)C(=O)O; β3hA = C[C@H](N)CC(=O)O; Aib = CC(C)(N)C(=O)O; βAla = NCCC(=O)O

T1: human PTH-1 receptor (Homo sapiens, UniProt Q03431)
T1 construct: expressed in transfected cells; host or cells: HEK-293
T1 sequence (Q03431 27-593): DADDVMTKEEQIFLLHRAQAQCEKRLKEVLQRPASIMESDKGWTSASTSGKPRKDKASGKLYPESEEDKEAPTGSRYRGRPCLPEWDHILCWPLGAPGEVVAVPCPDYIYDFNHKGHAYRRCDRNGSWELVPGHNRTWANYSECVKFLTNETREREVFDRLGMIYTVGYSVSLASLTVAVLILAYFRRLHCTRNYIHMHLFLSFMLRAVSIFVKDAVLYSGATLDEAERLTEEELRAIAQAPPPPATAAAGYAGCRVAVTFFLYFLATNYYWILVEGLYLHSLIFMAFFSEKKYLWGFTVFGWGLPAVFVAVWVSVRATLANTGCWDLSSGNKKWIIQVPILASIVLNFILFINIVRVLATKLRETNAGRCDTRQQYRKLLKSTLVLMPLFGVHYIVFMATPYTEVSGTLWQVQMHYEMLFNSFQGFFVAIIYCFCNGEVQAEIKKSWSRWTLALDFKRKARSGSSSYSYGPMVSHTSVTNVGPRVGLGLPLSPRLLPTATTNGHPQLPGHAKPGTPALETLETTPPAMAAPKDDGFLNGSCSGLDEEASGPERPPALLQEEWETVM

B1: [Nle^8, β-hArg^18, 2-Nal^23] hPTH (1-34)-NH2 (peptide)
peptide: SVSEIQL[Nle]HNLGKHLNS[β3hR]ERVE[2Nal]LRKKLQDVHNF-NH2
modifications: N-terminus assumed
SMILES: CCCC[C@H](NC(=O)[C@H](CC(C)C)NC(=O)[C@H](CCC(N)=O)NC(=O)[C@@H](NC(=O)[C@H](CCC(=O)O)NC(=O)[C@H](CO)NC(=O)[C@@H](NC(=O)[C@@H](N)CO)C(C)C)[C@@H](C)CC)C(=O)N[C@@H](Cc1c[nH]cn1)C(=O)N[C@@H](CC(N)=O)C(=O)N[C@@H](CC(C)C)C(=O)NCC(=O)N[C@@H](CCCCN)C(=O)N[C@@H](Cc1c[nH]cn1)C(=O)N[C@@H](CC(C)C)C(=O)N[C@@H](CC(N)=O)C(=O)N[C@@H](CO)C(=O)N[C@@H](CCCNC(=N)N)CC(=O)N[C@@H](CCC(=O)O)C(=O)N[C@@H](CCCNC(=N)N)C(=O)N[C@H](C(=O)N[C@@H](CCC(=O)O)C(=O)N[C@@H](Cc1ccc2ccccc2c1)C(=O)N[C@@H](CC(C)C)C(=O)N[C@@H](CCCNC(=N)N)C(=O)N[C@@H](CCCCN)C(=O)N[C@@H](CCCCN)C(=O)N[C@@H](CC(C)C)C(=O)N[C@@H](CCC(N)=O)C(=O)N[C@@H](CC(=O)O)C(=O)N[C@H](C(=O)N[C@@H](Cc1c[nH]cn1)C(=O)N[C@@H](CC(N)=O)C(=O)N[C@@H](Cc1ccccc1)C(N)=O)C(C)C)C(C)C
B2: [Nle^8, β-hIle^18, 2-Nal^23] hPTH (1-34)-NH2 (peptide)
peptide: SVSEIQL[Nle]HNLGKHLNS[β3hI]ERVE[2Nal]LRKKLQDVHNF-NH2
modifications: N-terminus assumed
SMILES: CCCC[C@H](NC(=O)[C@H](CC(C)C)NC(=O)[C@H](CCC(N)=O)NC(=O)[C@@H](NC(=O)[C@H](CCC(=O)O)NC(=O)[C@H](CO)NC(=O)[C@@H](NC(=O)[C@@H](N)CO)C(C)C)[C@@H](C)CC)C(=O)N[C@@H](Cc1c[nH]cn1)C(=O)N[C@@H](CC(N)=O)C(=O)N[C@@H](CC(C)C)C(=O)NCC(=O)N[C@@H](CCCCN)C(=O)N[C@@H](Cc1c[nH]cn1)C(=O)N[C@@H](CC(C)C)C(=O)N[C@@H](CC(N)=O)C(=O)N[C@@H](CO)C(=O)N[C@H](CC(=O)N[C@@H](CCC(=O)O)C(=O)N[C@@H](CCCNC(=N)N)C(=O)N[C@H](C(=O)N[C@@H](CCC(=O)O)C(=O)N[C@@H](Cc1ccc2ccccc2c1)C(=O)N[C@@H](CC(C)C)C(=O)N[C@@H](CCCNC(=N)N)C(=O)N[C@@H](CCCCN)C(=O)N[C@@H](CCCCN)C(=O)N[C@@H](CC(C)C)C(=O)N[C@@H](CCC(N)=O)C(=O)N[C@@H](CC(=O)O)C(=O)N[C@H](C(=O)N[C@@H](Cc1c[nH]cn1)C(=O)N[C@@H](CC(N)=O)C(=O)N[C@@H](Cc1ccccc1)C(N)=O)C(C)C)C(C)C)[C@@H](C)CC
B3: [Nle^8, β-hAla^18, 2-Nal^23] hPTH (1-34)-NH2 (peptide)
peptide: SVSEIQL[Nle]HNLGKHLNS[β3hA]ERVE[2Nal]LRKKLQDVHNF-NH2
modifications: N-terminus assumed
SMILES: CCCC[C@H](NC(=O)[C@H](CC(C)C)NC(=O)[C@H](CCC(N)=O)NC(=O)[C@@H](NC(=O)[C@H](CCC(=O)O)NC(=O)[C@H](CO)NC(=O)[C@@H](NC(=O)[C@@H](N)CO)C(C)C)[C@@H](C)CC)C(=O)N[C@@H](Cc1c[nH]cn1)C(=O)N[C@@H](CC(N)=O)C(=O)N[C@@H](CC(C)C)C(=O)NCC(=O)N[C@@H](CCCCN)C(=O)N[C@@H](Cc1c[nH]cn1)C(=O)N[C@@H](CC(C)C)C(=O)N[C@@H](CC(N)=O)C(=O)N[C@@H](CO)C(=O)N[C@@H](C)CC(=O)N[C@@H](CCC(=O)O)C(=O)N[C@@H](CCCNC(=N)N)C(=O)N[C@H](C(=O)N[C@@H](CCC(=O)O)C(=O)N[C@@H](Cc1ccc2ccccc2c1)C(=O)N[C@@H](CC(C)C)C(=O)N[C@@H](CCCNC(=N)N)C(=O)N[C@@H](CCCCN)C(=O)N[C@@H](CCCCN)C(=O)N[C@@H](CC(C)C)C(=O)N[C@@H](CCC(N)=O)C(=O)N[C@@H](CC(=O)O)C(=O)N[C@H](C(=O)N[C@@H](Cc1c[nH]cn1)C(=O)N[C@@H](CC(N)=O)C(=O)N[C@@H](Cc1ccccc1)C(N)=O)C(C)C)C(C)C

What was measured:
human PTH-1 receptor = target: T1, human PTH-1 receptor; assay: Reporter gene assay (CRE-luciferase) for agonist activity in transiently transfected HEK-293 cells; format: cell-based; conditions: for hPTHR-2/hPTHR-1: Table 3, selectivity for hPTH-1 receptor over hPTH-2 receptor
How it was run: (§1)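 Selectivity came from luciferase transcriptional reporter assays expressing human PTH-2 receptor. PTH-1 agonism used transiently transfected HEK-293 cells carrying SV40-promoter receptor and cAMP-responsive-element luciferase; 4-5 h compound exposure, lysis, luminescence, non-linear-regression EC50/efficacy; ≥3 independent runs, PTH (1-34) control each.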

human PTH-2 receptor = target: T2, human PTH-2 receptor (Homo sapiens, UniProt P49190); assay: Luciferase-based transcriptional reporter gene assay for selectivity; format: cell-based
T2 construct: expressed in transfected cells
How it was run: as §1

[1] = target: human parathyroid hormone receptor 1 (human, UniProt Q03431); assay: cell-based or functional assay
[2] = target: human parathyroid hormone receptor 2 (human, UniProt P49190); assay: cell-based or functional assay

T2 sequence (P49190 25-550): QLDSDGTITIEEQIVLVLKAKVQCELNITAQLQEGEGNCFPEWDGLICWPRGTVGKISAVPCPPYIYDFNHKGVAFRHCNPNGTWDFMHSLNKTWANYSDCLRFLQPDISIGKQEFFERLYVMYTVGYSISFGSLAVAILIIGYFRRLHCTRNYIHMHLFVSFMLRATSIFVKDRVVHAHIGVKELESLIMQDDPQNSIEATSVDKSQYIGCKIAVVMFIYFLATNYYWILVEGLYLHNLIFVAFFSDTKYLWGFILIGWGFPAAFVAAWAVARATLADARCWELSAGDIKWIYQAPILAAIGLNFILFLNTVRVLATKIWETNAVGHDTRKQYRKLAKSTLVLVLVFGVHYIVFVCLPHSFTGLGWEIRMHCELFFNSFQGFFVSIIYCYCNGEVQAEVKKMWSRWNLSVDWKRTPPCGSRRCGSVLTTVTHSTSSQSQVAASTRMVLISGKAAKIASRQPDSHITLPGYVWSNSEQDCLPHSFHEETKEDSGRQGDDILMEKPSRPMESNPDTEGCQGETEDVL

Row | Molecule | EC50 (human PTH-1 receptor) | hPTHR-2/hPTHR-1 (human PTH-1 receptor; ratio of EC50 values) | Selectivity hPTHR-2/hPTHR-1 (human PTH-1 receptor; Table 4 comparison data, ratio of EC50 values) | EC50 (human PTH-2 receptor) | EC50 (human PTH-2 receptor; Table 3, luciferase reporter gene assay, read-out: hPTHR-2 EC50) | hPTHR-1 EC50 (nM), CRE-luciferase reporter gene assay [1] | hPTHR-2 EC50 (nM), luciferase reporter gene assay [2]
1 | CCCC[C@H](NC(=O)[C@H](CC(C)C)NC(=O)[C@H](CCC(N)=O)NC(=O)[C@@H](NC(=O)[C@H](CCC(=O)O)NC(=O)[C@H](CO)NC(=O)[C@@H](NC(=O)C(C)(C)N)C(C)C)[C@@H](C)CC)C(=O)N[C@@H](Cc1c[nH]cn1)C(=O)N[C@@H](CC(N)=O)C(=O)N[C@@H](CC(C)C)C(=O)NCC(=O)N[C@@H](CCCCN)C(=O)N[C@@H](Cc1c[nH]cn1)C(=O)N[C@@H](CC(C)C)C(=O)N[C@@H](CC(N)=O)C(=O)N[C@@H](CO)C(=O)N[C@H](CC(=O)N[C@@H](CCC(=O)O)C(=O)N[C@@H](CCCNC(=N)N)C(=O)N[C@H](C(=O)N[C@@H](CCC(=O)O)C(=O)N[C@@H](Cc1cccc2ccccc12)C(=O)N[C@@H](CC(C)C)C(=O)N[C@@H](CCCNC(=N)N)C(=O)N[C@@H](CCCCN)C(=O)N[C@@H](CC(C)C)C(=O)N[C@@H](CC(C)C)C(=O)N[C@@H](CCC(N)=O)C(=O)N[C@@H](CC(=O)O)C(=O)N[C@H](C(=O)N[C@@H](Cc1c[nH]cn1)C(=O)N[C@@H](CC(N)=O)C(=O)N[C@@H](Cc1ccccc1)C(N)=O)C(C)C)C(C)C)[C@@H](C)CC [SEQ ID NO: 36, [Aib^1, Nle^8, β-hIle^18,1-Nal^23, Leu^27] hPTH (1-34)-NH2] (H-[Aib]VSEIQL[Nle]HNLGKHLNS[β3hI]ERVE[1Nal]LRKLLQDVHNF-NH2) | 0.04 nM | 372 | 372 | 16 nM |  |  | 
2 | CCCC[C@H](NC(=O)[C@H](CO)NC(=O)[C@H](CC(N)=O)NC(=O)[C@H](CC(C)C)NC(=O)[C@H](Cc1c[nH]cn1)NC(=O)[C@H](CCCCN)NC(=O)CNC(=O)[C@H](CC(C)C)NC(=O)[C@H](CC(N)=O)NC(=O)[C@H](Cc1c[nH]cn1)NC(=O)[C@H](CCCC)NC(=O)[C@H](CC(C)C)NC(=O)[C@H](CCC(N)=O)NC(=O)[C@@H](NC(=O)[C@H](CCC(=O)O)NC(=O)[C@H](CO)NC(=O)[C@@H](NC(=O)[C@@H](N)CO)C(C)C)[C@@H](C)CC)C(=O)NCCC(=O)N[C@@H](CCCNC(=N)N)C(=O)N[C@H](C(=O)N[C@@H](CCC(=O)O)C(=O)N[C@@H](Cc1cccc2ccccc12)C(=O)N[C@@H](CC(C)C)C(=O)N[C@@H](CCCNC(=N)N)C(=O)N[C@@H](CCCCN)C(=O)N[C@@H](CC(C)C)C(=O)N[C@@H](CC(C)C)C(=O)N[C@@H](CCC(N)=O)C(=O)N[C@@H](CC(=O)O)C(=O)N[C@H](C(=O)N[C@@H](Cc1c[nH]cn1)C(=O)N[C@@H](CC(N)=O)C(=O)N[C@@H](Cc1ccccc1)C(N)=O)C(C)C)C(C)C [SEQ ID NO: 11, [Nle^8,18, β-Ala^19,1-Nal^23, Leu^27] hPTH-(1-34)-NH2] (H-SVSEIQL[Nle]HNLGKHLNS[Nle][βAla]RVE[1Nal]LRKLLQDVHNF-NH2; N-terminus assumed) |  | 69 |  |  | 18 nM |  | 
3 | CCCC[C@H](NC(=O)CCNC(=O)[C@H](CCCCN)NC(=O)[C@H](CC(C)C)NC(=O)[C@H](Cc1c[nH]cn1)NC(=O)[C@H](CCCCN)NC(=O)CNC(=O)[C@H](CC(C)C)NC(=O)[C@H](CO)NC(=O)[C@H](Cc1c[nH]cn1)NC(=O)[C@H](CCCC)NC(=O)[C@H](CC(C)C)NC(=O)[C@H](CCC(N)=O)NC(=O)[C@@H](NC(=O)[C@H](CCC(=O)O)NC(=O)[C@H](CO)NC(=O)[C@@H](NC(=O)C(C)(C)N)C(C)C)[C@@H](C)CC)C(=O)N[C@@H](CCC(=O)O)C(=O)N[C@@H](CCCNC(=N)N)C(=O)N[C@H](C(=O)N[C@@H](CCC(=O)O)C(=O)N[C@@H](Cc1cccc2ccccc12)C(=O)N[C@@H](CC(C)C)C(=O)N[C@@H](CCCNC(=N)N)C(=O)N[C@@H](CCCCN)C(=O)N[C@@H](CC(C)C)C(=O)N[C@@H](CC(C)C)C(=O)N[C@@H](CCC(N)=O)C(=O)N[C@@H](CCCNC(=N)N)C(=O)N[C@H](C(=O)N[C@@H](Cc1c[nH]cn1)C(=O)N[C@@H](CCC(=O)O)C(=O)N[C@@H](CCC(=O)O)C(N)=O)C(C)C)C(C)C [SEQ ID NO: 6, [Aib^1, Nle^8,18, Ser^10, Lys^16, β-Ala^17,1-Nal^23, Leu^27, Arg^30, Glu^33, Glu^34] hPTH (1-34)-NH2] (H-[Aib]VSEIQL[Nle]HSLGKHLK[βAla][Nle]ERVE[1Nal]LRKLLQRVHEE-NH2; N-terminus assumed) | 0.03 nM | 267 |  | 7 nM |  |  | 
4 | B1 |  |  |  |  |  | 0.24 nM | 36 nM
5 | B2 |  |  |  |  |  | 0.25 nM | 42 nM
6 | B3 |  |  |  |  |  | 0.34 nM | 73 nM
